{"source": "patent US20120322824A1", "about": "“Cocaine Antagonist/Antidepressant Pharmaceutical Preparations” (priority 2011, published 2012)", "key": {"mice [1]": {"system": "mice", "test": "conditioned place preference assay (CPP)", "format": "in vivo", "description": "The conditioned place preference assay (CPP) is one test commonly used to show the ability of an antagonist to block rewarding effects in mice. Referring now to FIGS. 1a-b, according to the CPP test mice are placed in an apparatus with two chambers that differ in both visual and tactile cues. Over the course of a one-week training period, a rewarding drug (e.g.—cocaine) is administered once daily exclusively in one chamber so as to allow animals to associate the cues of that chamber with the drug. Sterile water is administered once daily while the animals occupy the opposite chamber to control for non-drug effects. At the conclusion of the training period, animals are allowed free access to both chambers and the time spent in each chamber is measured electronically. It is well known that addictive substances increase the amount of time animals spend in the drug-paired chamber, in the absence of any intervention.\nMoreover, additional testing was performed to control for effects of MI-4 on general behavioral activity, an essential consideration when interpreting results from locomotor-based behavioral paradigms such as the CPP test."}, "mice [2]": {"system": "mice", "test": "open field test, time spent in center", "format": "in vivo", "conditions": "FIG. 3", "from_the_text": "Anxiety disorders are often co-morbid with depression and antidepressant drugs are used in the treatment of anxiety. Tests for anxiety in rodents, such as the open field test, make use of the aversion of the animals for exposed locations. Treatment with anxiolytics such as diazepam or fluoxetine increases the amount of time an animal will spend in the center of the open field. We used the Opto-Varimax 4 Activity Analyzer to assess the time animals spent in the center of the open field vs. the periphery after treatment with MI-4. Data were measured as time spent in center (TIC)."}, "[3]": {"target": "serotonin (5-HT) transporter (Homo sapiens, UniProt P31645)", "sequence (P31645 whole entry)": "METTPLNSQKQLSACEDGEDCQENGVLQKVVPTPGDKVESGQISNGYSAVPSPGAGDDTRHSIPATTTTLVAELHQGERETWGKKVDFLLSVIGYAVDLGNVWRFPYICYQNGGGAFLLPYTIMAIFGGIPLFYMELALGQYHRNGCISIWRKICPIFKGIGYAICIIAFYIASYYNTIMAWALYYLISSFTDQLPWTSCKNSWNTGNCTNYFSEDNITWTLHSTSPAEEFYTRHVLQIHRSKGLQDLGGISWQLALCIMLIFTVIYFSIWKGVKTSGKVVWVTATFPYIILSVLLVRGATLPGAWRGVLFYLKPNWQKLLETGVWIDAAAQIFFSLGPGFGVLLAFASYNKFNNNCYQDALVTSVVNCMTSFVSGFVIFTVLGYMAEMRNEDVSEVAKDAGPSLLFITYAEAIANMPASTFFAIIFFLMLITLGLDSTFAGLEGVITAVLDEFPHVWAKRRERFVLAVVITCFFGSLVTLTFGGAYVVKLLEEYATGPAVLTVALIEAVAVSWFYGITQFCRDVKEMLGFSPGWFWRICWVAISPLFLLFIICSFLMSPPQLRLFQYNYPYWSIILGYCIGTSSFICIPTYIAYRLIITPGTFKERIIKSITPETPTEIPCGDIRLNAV", "test": "in vitro binding affinity, serotonin transporter", "conditions": "in vitro studies"}, "mice [4]": {"system": "mice", "test": "locomotor activity (Opto-Varimax 4 Activity Analyzer)", "format": "in vivo", "description": "Referring now to FIGS. 2a-d, locomotor activity was assessed in a non-invasive manner using a Opto-Varimax 4 Activity Analyzer (Columbus Instruments, Columbus, Ohio) that measures animal activity in a cage intersected with photocells projecting infrared beams 2.5 cm apart and 2 cm above the floor. After a brief habituation period, animals were treated with either sterile water as vehicle or MI-4 and activity was measured for 20 min."}, "[5]": {"target": "dopamine (DA) transporter (Homo sapiens, UniProt Q01959)", "sequence (Q01959 whole entry)": "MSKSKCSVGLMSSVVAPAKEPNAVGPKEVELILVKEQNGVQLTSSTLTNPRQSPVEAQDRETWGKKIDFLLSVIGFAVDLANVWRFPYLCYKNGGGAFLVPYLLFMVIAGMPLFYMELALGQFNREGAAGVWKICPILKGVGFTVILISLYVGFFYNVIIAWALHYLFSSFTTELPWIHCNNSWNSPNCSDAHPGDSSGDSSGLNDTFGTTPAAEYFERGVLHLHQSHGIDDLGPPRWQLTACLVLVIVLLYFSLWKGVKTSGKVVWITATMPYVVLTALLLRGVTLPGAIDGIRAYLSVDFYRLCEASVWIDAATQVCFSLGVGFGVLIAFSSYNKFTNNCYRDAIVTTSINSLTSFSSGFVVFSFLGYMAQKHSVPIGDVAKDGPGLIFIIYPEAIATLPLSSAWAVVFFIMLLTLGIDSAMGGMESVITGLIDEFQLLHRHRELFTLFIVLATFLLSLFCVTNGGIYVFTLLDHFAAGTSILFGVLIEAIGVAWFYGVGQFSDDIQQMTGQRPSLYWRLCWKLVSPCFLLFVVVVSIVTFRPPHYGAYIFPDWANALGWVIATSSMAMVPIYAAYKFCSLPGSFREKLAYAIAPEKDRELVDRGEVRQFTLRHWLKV", "test": "in vitro binding affinity, dopamine transporter", "conditions": "in vitro studies"}, "[6]": {"target": "noreinephrine (NE) transporter (Homo sapiens, UniProt P23975)", "sequence (P23975 whole entry)": "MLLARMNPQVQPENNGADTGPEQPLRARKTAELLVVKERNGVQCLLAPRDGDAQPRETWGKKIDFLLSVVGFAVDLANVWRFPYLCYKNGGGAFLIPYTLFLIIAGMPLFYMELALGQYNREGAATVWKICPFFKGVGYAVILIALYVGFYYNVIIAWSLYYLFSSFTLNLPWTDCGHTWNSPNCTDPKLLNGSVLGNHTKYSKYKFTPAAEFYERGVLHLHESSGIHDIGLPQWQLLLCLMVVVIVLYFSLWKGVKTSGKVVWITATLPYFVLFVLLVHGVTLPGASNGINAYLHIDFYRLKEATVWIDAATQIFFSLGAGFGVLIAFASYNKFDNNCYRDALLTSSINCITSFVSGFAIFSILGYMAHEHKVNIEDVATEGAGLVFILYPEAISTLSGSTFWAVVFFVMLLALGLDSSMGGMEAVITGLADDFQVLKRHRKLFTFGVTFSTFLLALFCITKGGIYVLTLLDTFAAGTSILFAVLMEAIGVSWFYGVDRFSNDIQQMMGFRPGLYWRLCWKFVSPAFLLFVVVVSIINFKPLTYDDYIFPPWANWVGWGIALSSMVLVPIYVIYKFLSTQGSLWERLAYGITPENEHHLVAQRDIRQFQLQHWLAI", "test": "in vitro binding affinity, norepinephrine transporter", "conditions": "in vitro studies"}, "mice [7]": {"system": "mice", "test": "tail suspension test (TST)", "format": "in vivo", "from_the_text": "Referring now to FIGS. 5a-d, the tail suspension test (TST) and forced swim test (FST) are well-established, prototypical rodent models of learned helplessness. […] These assays are based on the premise that helpless or “depressed” animals struggle less to escape the mild but inescapable stress of being suspended or being immersed in room temperature water. […] In the TST, standard laboratory tape is used to immobilize an animal by its tail to a fixed support approximately 10.5 inches above a surface. The duration of the test is six minutes during which time animal movement is videotaped and later scored for immobility time (in sec) by a blinded observer. Similarly, in the FST animals are immersed in approximately 10 cm of 25° C. water in a 20 cm×13 cm glass cylinder. Animals were tested for 5 min and behavior was videotaped and scored for immobility time (sec) by a blinded observer."}, "rodents": {"system": "rodents", "conditions": "doses less than 100 mg/kg, i.p.; cited from earlier work"}, "[8]": {"conditions": "human subjects, cited from earlier work"}, "[9]": {"conditions": "intravenous administration for up to 72 hours"}}, "note": "Read-outs that look alike come from different tables or passages of the source.", "data": [{"compound": "C[C@@H](CN1CCC(Cc2ccccc2)CC1)[C@@H](O)c1ccc(O)cc1", "note": "(relative stereo) [MI-4, ([R-(R*,S*)]-α-(4-Hydroxyphenyl)-β-methyl-4-(phenylmethyl)-1-piperidinepropanol]", "values": [{"measurement": "effect of cocaine on time in drug-paired chamber when co-administered", "setting": "mice [1]; MI-4 10/mg/kg i.p. co-administered with cocaine 10 mg/kg i.p., FIG. 1b", "result": "reduced by half"}, {"measurement": "rewarding effects when administered alone (time spent in the MI-4-paired chamber)", "setting": "mice [1]; administered alone at the same dose (10/mg/kg, i.p.)", "result": "did not exhibit rewarding effects"}, {"measurement": "time in center in the open field", "setting": "mice [2]; 10 mg/kg", "result": "decreased time in center"}, {"measurement": "time spent in center (TIC) in the open field", "setting": "mice [2]", "result": "did not significantly increase"}, {"measurement": "binding affinity for the serotonin (5-HT) transporter", "setting": "[3]", "result": "physiologically-relevant binding affinity"}, {"measurement": "distance traveled", "setting": "mice [4]; MI-4 vs sterile water vehicle, 20 min, FIG. 2a", "result": "only minor effects"}, {"measurement": "ambulatory time", "setting": "mice [4]; MI-4 vs sterile water vehicle, 20 min, FIG. 2b", "result": "only minor effects"}, {"measurement": "stereotopy time (grooming behavior)", "setting": "mice [4]; MI-4 vs sterile water vehicle, 20 min, FIG. 2c", "result": "did not significantly alter"}, {"measurement": "resting time", "setting": "mice [4]; MI-4 vs sterile water vehicle, 20 min, FIG. 2d", "result": "only minor effects"}, {"measurement": "binding affinity for the dopamine (DA) transporter", "setting": "[5]", "result": "physiologically-relevant binding affinity"}, {"measurement": "binding affinity for the noreinephrine (NE) transporter", "setting": "[6]", "result": "physiologically-relevant binding affinity"}, {"measurement": "immobility time in the TST", "setting": "mice [7]; six minute test, FIG. 5a, comparable in effect to fluovoxamine and desipramine", "result": "dose-dependent reduction in immobility time"}, {"measurement": "adverse effects (tolerability)", "setting": "rodents", "result": "no observable adverse effects"}]}, {"compound": "Oc1ccc(C2=CCN(C[C@H](O)COCc3ccccc3Cl)CC2)cc1", "note": "[MI-17, reference compound]", "values": [{"measurement": "distance traveled", "setting": "mice [4]; beginning at 3 mg/kg but mostly at 10 mg/kg, FIG. 4a", "result": "dramatically decreased"}, {"measurement": "resting time", "setting": "mice [4]; beginning at 3 mg/kg but mostly at 10 mg/kg, FIG. 4b", "result": "dramatically increasing"}, {"measurement": "stereotopy time", "setting": "mice [4]; beginning at 3 mg/kg but mostly at 10 mg/kg, FIG. 4c", "result": "dramatically decreased"}, {"measurement": "ambulatory time", "setting": "mice [4]; beginning at 3 mg/kg but mostly at 10 mg/kg, FIG. 4d", "result": "dramatically decreased"}, {"measurement": "immobility times in the TST", "setting": "mice [7]; 2% DMSO vehicle, FIG. 5c", "result": "dose-dependently increased"}, {"measurement": "immobility times in the TST", "setting": "mice [7]; 55% DMSO vehicle in the oxalate form, FIG. 5d", "result": "dose-dependently increased"}]}, {"compound": "C[C@@H]([C@@H](O)c1ccc(O)cc1)N1CCC(O)(c2ccccc2)CC1", "note": "[traxoprodil]", "values": [{"measurement": "oral bioavailability", "setting": "[8]; extensive metabolizers (EM)", "result": "23-62%"}, {"measurement": "adverse effects", "setting": "[8]; [9]", "result": "no observable adverse effects"}, {"measurement": "sustained levels in the cerebral spinal fluid", "setting": "[8]; [9]", "result": "> 200", "unit": "ng/mL"}, {"measurement": "sustained levels in the plasma", "setting": "[8]; [9]", "result": "> 200", "unit": "ng/mL"}, {"measurement": "oral bioavailability", "setting": "[8]; poor metabolizers (PM)", "result": "approx. 80%"}]}]}
